Assay results published in patent US20220017861A1, “UREMIC VASCULOPATHY MODEL USING ENDOTHELIAL CELLS DERIVED FROM INDUCED PLURIPOTENT STEM CELLS AND UREMIC COMPLEX, AND USE THEREOF” (SAMSUNG LIFE PUBLIC WELFARE FOUNDATION, priority 2018, published 2022).
Where a name gives a salt, the structure may show the parent alone.

What was measured:
Format in all cases: cell-based
[1] = test system: endothelial cells derived from normal control induced pluripotent stem cells; test: Drug effect verification by tube formation in uremic vasculopathy endothelial cell model; conditions: cells exposed to uremic toxin mixture or ESKD patient serum, then treated with drug, FIG. 11
Procedure: (§1) In order to evaluate the functional abnormality of endothelial cells that may form vascular structures, the tube formation ability was measured. After seeding endothelial cells into a 24 or 12-well plate applied with Matrigel (Corning, catalog number CB-40234). After 16 to 24 hours of incubation, the level of tube formation was compared and analyzed.
In order to confirm whether the effect of the drug can be verified using the uremic vasculopathy endothelial cell model prepared by treating with the uremic toxin mixture of the present invention, the uremic toxin mixture of the present invention or ESKD patient's serum was applied to endothelial cells derived from normal control induced pluripotent stem cells. Then, SD-208 (TGF-β inhibitor) and losartan (angiotensin receptor blocker) were treated to measure the level of tube formation in order to examine respective effects. The endothelial cells' tube formation ability was measured and compared in the uremic toxin mixture of the present invention (UT-F, UT-H, uric acid 3 (UA 3)), serum of patients with chronic kidney disease (patient 2, patient 4), normal control serum (control 1) and cell culture medium alone (media only).

[2] = test system: endothelial cells differentiated from induced pluripotent stem cells; test: Apoptosis of endothelial cells (Caspase-Glo 3/7 assay); conditions: FIG. 7
Procedure: , apoptosis of endothelial cell was measured according to the manufactural instructions using the Caspase-Glo 3/7 assay systems kit (Promega, catalog number G8091), and the results are shown in FIG. 4.

[3] = test system: endothelial cells differentiated from induced pluripotent stem cells; test: Tube formation ability of endothelial cells on Matrigel; conditions: 16 to 24 hours of incubation on Matrigel, FIGS. 8 and 9
Procedure: as §1
In order to confirm the reliability and effectiveness of the uremic vasculopathy endothelial cell model prepared by treating endothelial cells with the uremic toxin mixture of the present invention, the level of tube formation was measured to compare effects of the serum of ESKD patient undergoing hemodialysis and the uremic toxin mixture of the present invention by measuring the tube formation level.

| SMILES | inhibition of endothelial cell tube formation after drug treatment [1] | apoptosis of endothelial cells ([2]; single uremic toxin at 1 mM) | other results |
| --- | --- | --- | --- |
| Fc1ccc(Cl)cc1-c1nc(Nc2ccncc2)c2nccnc2n1 [SD-208] | alleviated | – | – |
| O=S(=O)(O)Oc1c[nH]c2ccccc12 [indoxyl sulfate, Indoxyl sulfate] | – | not significantly promoted | – |
| CCCCc1nc(Cl)c(CO)n1Cc1ccc(-c2ccccc2-c2nn[nH]n2)cc1 [losartan] | alleviated | – | – |
| NC(N)=O [urea, Urea] | – | – | apoptosis of endothelial cells ([2]; single uremic toxin at 50 mM): not significantly promoted |
| O=c1[nH]c(=O)c2[nH]c(=O)[nH]c2[nH]1 [uric acid, Uric acid] | – | significantly promoted | tube formation ability of endothelial cells [3]: well maintained |
